Results reported in patent US20230131339A1, “EPI-X4 BASED PEPTIDES AND DERIVATIVES THEREOF” (Universitaet Ulm, priority 2020, published 2023).
Read-outs that look alike come from different tables or passages of the source. Where a SMILES comes first, the peptide text is derived from it. Where no end group is shown, it is not given here. Side-chain parts run from the residue outwards. [ ]: non-standard residue; d: D form. The star is where a group is joined. DOTA = O=C(O)CN1CCN(CC(=O)O)CCN(CC(=O)*)CCN(CC(=O)O)CC1; Palmitoyl = CCCCCCCCCCCCCCCC(=O)*; Myristoyl = CCCCCCCCCCCCCC(=O)*; Glu = glutamate linker

Tests used:
CXCR4 = biological target: T1, CXCR4 (Homo sapiens, UniProt P61073); experiment: Antibody competition assay (12G5-assay) on SupT1 cells; format: binding
T1 construct: endogenous in cells; host or cells: SupT1 cells
T1 sequence (P61073 whole entry): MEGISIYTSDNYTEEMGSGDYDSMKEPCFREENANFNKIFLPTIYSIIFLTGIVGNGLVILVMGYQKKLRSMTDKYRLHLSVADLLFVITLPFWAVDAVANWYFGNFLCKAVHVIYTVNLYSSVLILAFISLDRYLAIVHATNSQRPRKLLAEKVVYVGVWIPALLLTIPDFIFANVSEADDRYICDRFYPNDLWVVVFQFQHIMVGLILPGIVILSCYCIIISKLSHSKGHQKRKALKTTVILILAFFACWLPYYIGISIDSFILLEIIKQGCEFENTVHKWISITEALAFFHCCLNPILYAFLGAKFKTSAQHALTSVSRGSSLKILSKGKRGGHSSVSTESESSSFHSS
Protocol: Second, the activity was tested by an antibody competition assay (FIG. 2). Values determined by the competition assay represent the potency of a compound to compete with an antibody that specifically binds to the binding pocket (ECL2) of CXCR4. […] To the right of the diagrams, an assignment of the curves to the tested peptides is explained. […] Three independent experiments were carried out for each peptide in each assay. The error bars refer to the standard deviation.
Antibody competition assay. Competition of compounds with antibody binding was performed on SupT1 cells. For that cells were washed in PBS containing 1% FCS and 50,000 cells were then seeded per well in a 96 V-well plate. Buffer was removed and plates were precooled at 4° C. Compounds were diluted in PBS and antibody (clone 12G5, APC labelled) was diluted in PBS containing 1% FCS. The antibody was used at a concentration closed to its determined Kd. 15 μl compounds were then added to the cells and 15 μl antibody immediately afterwards. Plates were incubated at 4° C. in the dark for 2 hours. Afterwards cells were washed twice with PBS containing 1% FCS and fixed with 2% PFA. Antibody binding was analyzed by flow cytometry (FACS CytoFLEX; Beckman Coulter®).

[1] = tested on: CXCR4-tropic X4-HIV-1 (NL4-3); format: cell-based
Protocol: The activity of the peptides was estimated by different assays.
The X4-HIV inhibition assay is designed to measure the activity of the inventive peptides by their efficiency of blocking the infection of tissue culture cells by CXCR4-tropic HIV-1 variants.
HIV-1 inhibition assay. […] For infection of TZM-bl cells in presence of inhibitors, cells were seeded at a density of 1×10^5 cells/ml in 70 μl DMEM containing 2.5% FCS. Compounds were diluted in PBS and 10 μl were added. After 15 minutes of incubation cells were inoculated with 20 μl of diluted virus. Infection rates were determined three days later using Gal-Screen system (Applied Biosystems).

[2] = tested on: CXCL12-induced AKT signaling; experiment: ERK/AKT signaling assay in SupT1 cells: AKT phosphorylation; format: cell-based; conditions: 10 μM
Protocol: Third, the activity of the claimed EPI-X4 derivatives was tested by the effect on CXCL12/CXCR4-mediated ERK (Extracellular-signal Regulated Kinases) and AKT (a serine/threonine-protein kinase) signaling (FIG. 3). In that assay CXCR4 expressing cells are stimulated with the CXCR4 chemokine-ligand CXCL12, which subsequently leads to phosphorylation of ERK and AKT. Preincubation of cells with CXCR4-antagonists blocks those pathways. […] Two or three independent experiments were carried out in triplicates for each peptide in each assay. The error bars refer to the standard deviation.
ERK/AKT signaling assay. CXCL12 induced ERK and AKT phosphorylation was determined in SupT1 cells. For this, 100,000 cells were seeded per well in a 96-V well plate in 100 μl medium supplemented with 1% FCS. Cells were incubated for 2 hours at 37° C. before 5 μl of compounds were added. After 15 min incubation at 37° C. cells were stimulated by adding 5 μl CXCL12 diluted in PBS to reach a final concentration of 100 ng/ml. Cells were further incubated for 2 min before the reaction was stopped by adding 20 μl of 10% PFA. Cells were fixed for 15 min at 4° C. before PFA was removed and cells permeabilized by adding 100 μl ice cold methanol. After 15 min at 4° C. the methanol was removed, cells were washed and 30 μl primary antibody was added (phospho-p44/42 MAPK (Erk1) (Tyr204)/(Erk2) (Tyr187) (D1H6G) mouse mAb #5726; phosphor-Akt (Ser473) (193H12) rabbit mAb #4058 Cell Signaling) for 1 hour at 4° C. After the antibody was removed and cells were washed secondary antibody was added for 30 min. Cells were washed afterwards and subsequently analyzed by flow cytometry.

[3] = Functional stability assay in human plasma
Protocol: Fourth, the stability of peptides in human plasma and whole human blood was tested (FIG. 4). The functional stability of EPI-X4 (SEQ ID NO.: 1) derivatives was screened using a CXCR4 antibody-based screening approach. Peptides were diluted in full human plasma or blood (>99%) and the functional activity was then measured after either 2 hours or 8 hours and compared to a sample that was not incubated in plasma or blood.
In this test, the peptides were incubated in human plasma for a certain time period.
Stability assay. Whole blood was collected from healthy donors in EDTA tubes and directly used or subsequently centrifuged for 15 min at 2,500×g to obtain plasma. Plasma from 6 donors was pooled and stored in aliquots at −80° C. Compounds were 200-fold diluted in human plasma or whole human blood to reach final concentrations of 20 μM. The t=0 sample was immediately taken and stored at −80° C. Plasma/compound or blood/compound mixture was then transferred to 37° C. and shook at 350 rpm. At given time points samples were taken and stored at −80° C.°. For measuring the functional activity of the plasma/peptide samples, the mixtures were thawed and diluted in ice cold PBS. 12G5-APC antibody competition was then performed as described before. For blood/peptide functional stability, samples were thawed and centrifuged at 14,000 rpm to remove cells and debris. The supernatant was then diluted in PBS and 12G5-antibody competition assay was performed. After the 2 hours incubation, the cells were washed and 50 μl of 1-step-Fix/Lyse solution (Thermo Fisher #00-5333-54) was added for 15 minutes at room temperature. Afterwards cells were washed again and analyzed for bound antibody.

Work on `CCCCCCCCCCCCCCCC(=O)NCCCC[C@H](NC(=O)[C@H](CCCCN)NC(=O)[C@H](CO)NC(=O)[C@H](Cc1c[nH]c2ccccc12)NC(=O)[C@H](CCCNC(=N)N)NC(=O)[C@@H](NC(=O)[C@@H](N)[C@@H](C)CC)C(C)C)C(=O)N[C@H](C(=O)N1CCC[C@H]1C(N)=O)C(C)C` [JM #167, IVRWSKK(Pal)VP-NH2] (H-IVRWSKK(Palmitoyl)VP-NH2) yielded an IC50 (CXCR4) of 2 nM.

In the case of “SC069: DSPE-coupled derivative (via PEG), two peptide copies on one end (ILRWSRKLPCVS; also: DSPE-coupled via PEG, two peptide copies on one end)”, the “anti-HIV-1 activity (in words)” value [1] is reported as “higher activity than cholesterol-coupled SC043” and the “antibody competition / binding to CXCR4 (in words)” value (from here on “antibody competition / binding”) (CXCR4) is reported as “higher activity than cholesterol-coupled SC043”.

With “SC037: PVP-coupled peptide JM #21, average molecular mass 20 kDa (ILRWSRKLPCVS; also: PVP-coupled, average 20 kDa)” the “anti-HIV-1 activity (in words)” value [1] was “comparable activity as JM #21” and the “antibody competition / binding” value (CXCR4) was “comparable activity as JM #21”.

With “SC042: PVA-coupled peptide JM #21, average molecular mass 20 kDa (ILRWSRKLPCVS; also: PVA-coupled, average 20 kDa)” the “anti-HIV-1 activity (in words)” value [1] was “comparable activity as JM #21” and the “antibody competition / binding” value (CXCR4) was “comparable activity as JM #21”.

For “JM #206: JM #21 with DOTA conjugated via an additional lysine coupled to the C-terminal amino acid of the peptide (ILRWSRKLPCVSK(DOTA))”, the “anti-HIV-1 activity (in words)” value [1] was “suppressed HIV-1 infection with similar potency as the non-conjugated peptide” and the “antibody competition / binding” value (CXCR4) was “displaced the antibody as efficiently as the non-conjugated JM #21”.

In the case of `CC(C)C[C@H](NC(=O)[C@@H](NC(=O)[C@@H]1CCCN1C(=O)[C@@H](NC(=O)[C@H](CO)NC(=O)[C@@H](NC(=O)[C@H](CCC(N)=O)NC(=O)[C@@H]1CCCN1C(=O)[C@@H](NC(=O)[C@H](CCCCN)NC(=O)[C@H](CCCCN)NC(=O)[C@@H](NC(=O)[C@H](Cc1ccc(O)cc1)NC(=O)[C@H](CCCNC(=N)N)NC(=O)[C@@H](NC(=O)[C@@H](N)CC(C)C)C(C)C)[C@@H](C)O)C(C)C)C(C)C)[C@@H](C)O)[C@@H](C)O)C(=O)O` [EPI-X4] (H-LVRYTKKVPQVSTPTL-OH; N-terminus and C-terminus assumed), the “reduction of CXCL12-induced AKT signaling” value [2] is reported as “about 40%” and the half-life at 20 μM ([3]; human, plasma) is reported as 17 min.

In the case of “JM #207: JM #122 with DOTA conjugated via an additional lysine coupled to the C-terminal amino acid of the peptide (ILRWSRKLPSVSK(DOTA))”, the “anti-HIV-1 activity (in words)” value [1] is reported as “suppressed HIV-1 infection with similar potency as the non-conjugated peptide” and the “antibody competition / binding” value (CXCR4) is reported as “displaced the antibody as efficiently as the non-conjugated JM #21”.

For “SC066: PEG-coupled JM #21, two peptide copies on one end of PEG, average molecular mass 20 kDa (ILRWSRKLPCVS; also: PEG-coupled, two peptide copies on one end, average 20 kDa)”, the “anti-HIV-1 activity (in words)” value [1] was “comparable to the state of the art CXCR4-antagonist AMD3100 and JM #21” and the “antibody competition / binding” value (CXCR4) was “even higher activity than JM #21”.

In the case of `c1cc(CN2CCCNCCNCCCNCC2)ccc1CN1CCCNCCNCCCNCC1` [AMD3100, reference compound], the “reduction of CXCL12-induced AKT signaling” value [2] is reported as “about 60%”.

With “ILRWSRK(Glu-Myr)LPCVS (ILRWSRK([Glu-Myristoyl])LPCVS) [JM #204]” the “remaining activity in plasma in vivo 4 hours post injection” value (mouse, in vivo, iv, 4 h) was “lost”.

With `CCCCCCCCCCCCCCCC(=O)NCCCC[C@H](NC(=O)[C@H](CCCNC(=N)N)NC(=O)[C@H](CO)NC(=O)[C@H](Cc1c[nH]c2ccccc12)NC(=O)[C@H](CCCNC(=N)N)NC(=O)[C@H](CCSC)NC(=O)[C@H](N)CC(C)C)C(=O)N[C@@H](CCSC)C(=O)N1CCC[C@H]1C(N)=O` [JM #178, d-LMRWSRK(Pal)MP-NH2] (H-[dL]MRWSRK(Palmitoyl)MP-NH2; N-terminus assumed) the “anti-HIV-1 activity (in words)” value [1] was “strongly increased anti-HIV-1 activity” and the IC50 (CXCR4) was 2 nM.

In the case of `CCCCCCCCCCCCCCCC(=O)NCCCC[C@H](NC(=O)[C@H](CCCNC(=N)N)NC(=O)[C@H](CO)NC(=O)[C@H](Cc1c[nH]c2ccccc12)NC(=O)[C@H](CCCNC(=N)N)NC(=O)[C@H](CCSC)NC(=O)[C@H](N)CC(C)C)C(N)=O` [JM #180, d-LMRWSRK(Pal)-NH2] (H-[dL]MRWSRK(Palmitoyl)-NH2), the “anti-HIV-1 activity (in words)” value [1] is reported as “strongly increased anti-HIV-1 activity”, the “remaining activity in plasma in vivo 4 hours post injection” value (mice, i.v. tail vein, 4 hours post injection) is reported as 29% and the “remaining activity in plasma in vivo 8 hours post injection” value (mice, i.v. tail vein, 8 hours post injection) is reported as “about 9%”.

For `CSCC[C@@H](N)C(=O)N[C@@H](CC(C)C)C(=O)N[C@@H](CCCNC(=N)N)C(=O)N[C@@H](Cc1c[nH]c2ccccc12)C(=O)N[C@@H](CO)C(=O)N[C@@H](CCCNC(=N)N)C(=O)N[C@@H](CCCCN)C(=O)N[C@@H](CCSC)C(=O)N1CCC[C@H]1C(=O)N[C@@H](CS)C(=O)N[C@H](C(=O)N[C@@H](CO)C(=O)O)C(C)C` [JM #28] (H-[dM]LRWSRKMPCVS-OH; C-terminus assumed), the IC50 ([1]; CXCR4-tropic X4- (NL4-3)) was 246 nM, the “remaining (relative) activity after 2 hours of plasma incubation” value ([3]; human plasma, 2 hours) was 96% and the “remaining (relative) activity after 8 hours of plasma incubation” value ([3]; human plasma, 8 hours) was 77%.

With “SC001: DSPE-coupled derivative (via PEG), one peptide copy (ILRWSRKLPCVS; also: DSPE conjugate via PEG, one peptide copy, site not given here)” the “anti-HIV-1 activity (in words)” value [1] was “higher activity than cholesterol-coupled SC043” and the “antibody competition / binding” value (CXCR4) was “higher activity than cholesterol-coupled SC043”.

In the case of “SC024: PEG-coupled peptide JM #21, average molecular mass 20 kDa (ILRWSRKLPCVS; also: coupled to PEG 20 kDa, site not given here)”, the “anti-HIV-1 activity (in words)” value [1] is reported as “comparable to the state of the art CXCR4-antagonist AMD3100 and JM #21” and the “remaining (relative) activity after 8 hours of plasma incubation” value ([3]; human, plasma, 8 h) is reported as 30%.
